Results published in patent US20230094545A1, “S1P RECEPTOR MODULATORS” (AKAAL PHARMA PTY LTD, priority 2020, published 2023).

How the values were obtained:
[1] = test system: dinitrofluorobenzene (DNFB)-induced delayed-type hypersensitivity; test: DNFB-induced delayed-type hypersensitivity (DTH); format: in vivo; conditions: 3 mg/kg twice daily
Method: The efficacy of compound of formula (I) was determined in an animal model of dinitrofluorobenzene (DNFB)-induced delayed-type hypersensitivity (DTH), an inflammatory model. The animals (n=9) were treated with the vehicle or a compound of formula (I), receiving a twice daily dose of 3 mg/kg. The efficacy end points were measured as Ear thickness before challenge and 24 h after challenge. Ear weight was measured 24 h after challenge. At sacrifice, right ear samples were collected and used for tissue MPO activity.

[2] = test system: LPS mediated systemic inflammation; test: LPS-induced sepsis model; format: in vivo, Sprague-Dawley rats; conditions: 3 mg/Kg oral 1 h after LPS and every 24 h
Method: Sepsis was induced in female Sprague-Dawley rats by LPS (5 mg/kg) administration and treated orally with compound of Formula I (3 mg/Kg) 1 h after and every 24 h thereafter to determine the effect of a compound of formula (I) in this animal model of sepsis (LPS mediated systemic inflammation). Animals were sacrificed at 24 and 72h post LPS treatment.

[3] = test system: DSS-induced colitis; test: DSS-induced ulcerative colitis model; format: in vivo, Balb/C Mice
Method: The effect of a compound of formula (I) was assessed in an animal model of Ulcerative colitis. 24 Balb/C Mice were divided into […]; control and treatment (n=6). Acute colitis was induced in all groups by adding 2.5% w/v Dextran Sulphate Sodium (DSS) treatment in drinking water for 5-7 days. A compound of Formula I was administered at dose of 3 mg/kg body weight by oral route as a repeated dose for 3 or 6 days, consecutively. […] During day 6 these observations were reduced to 16.66% in control and 0.00% in a compound of Formula I group.
The mean colon lengths were 9.67 cm, 9.88 cm, 11.20 cm and 13.02 cm in day 3 control group, day 6 control group, day 3 a compound of Formula I treated group and day 6 a compound of Formula I treated group respectively. […] The severity of presence of haemorrhages with desquamated cells seen in lumen of colon of control animals was reduced in a compound of Formula (I) treated animals.

[4] = Systemic exposure in human subjects after topical application; conditions: in vivo
Source text: The medicaments according to the present disclosure may contain from about 0.05% to about 10% by weight, or from about 0.5% to about 10% by weight, preferably from about 1.0 to about 4.5% by weight or preferably from about 1.5 to about 4.5% by weight, of the S1P receptor modulator. […] The dose of the S1P receptor modulator used in the treatment of the aforementioned disorders will vary in the usual way with the seriousness of the disorders, the weight of the sufferer, and other similar factors. In preferred embodiments, the medicament is applied to 100 cm^2 of body surface area per 1 g of medicament, up to 1000 cm^2 of body surface area per 1 g of medicament. The medicament can be applied such that the standard daily therapeutic dosage of active compound is ≤3 g. The topical dose level and strength of dose formulation with the compound of formula (I) may be extended to higher levels without risk of bradycardia and lymphopenia. For example, dose levels of medicaments according to the methods of the present disclosure may include up to: • 1. 10 g daily dose of up to 30% ww strength formulation with 1 g up to 300 cm^2 surface area • 2. 10 g daily dose of up to 30% ww strength formulation with 1 g up to 1000 cm2 surface area • 3. 100 g daily dose of up to 3% ww strength formulation with 1 g up to 300 cm^2 surface area • 4. 100 g daily dose of up to 3% ww strength formulation with 1 g up to 1000 cm2 surface area • 5. 300 g daily dose of up to 1% ww strength formulation with 1 g up to 300 cm^2 surface area. • 6. 300 g daily dose of up to 1% ww strength formulation with 1 g up to 1000 cm^2 surface area
The body surface area of an adult is around 16,000 cm^2 to 18,000 cm^2 and the skin surface area varies from 10,000 cm^2 to 20,000 cm^2 (https://hypertextbook.com/facts/2001/IgorFridman.shtml, and references cited within). Human subjects received a topical application of 1 g of 3% by weight formulation per 150 cm^2 of body surface area (over the skin) twice daily for 21 days. The resulting systemic exposure was approximately 2.2 ng/ml.

[5] = Solubility in water / precipitation in buffer; format: physicochemical; conditions: listed as compound of formula I
Method: To solubilize the free base in water the novel technology AvignaSOL (N,N-Dimethyl hexanamide; patent number: U.S. Pat. No. 9,186,338B2) and its higher derivatives such as octinamide, decamide which improve the absorption of various poorly soluble drugs was used. AvignaSOL as 1-70% ww % assisted the solubilization of free base as 1 gm/20 mL of water. The solubility of free base in water assisted its direct use in various formulation such as creams, gels, solutions which together with the permeation enhancing effect will be harnessed to improve skin penetration and/or bioavailability and in altering the pharmacokinetics and pharmacodynamics profile of free base.
The AvignaSOL having a log P of ˜1.6 hinder the release by increasing the hydrophobicity of the delivery system. […] The combination of compound of formula I with other ingredients including sustained release enhancer with or without AvignaSOL were prepared as novel formulation techniques to improve and/or alter the pharmacokinetics and pharmacodynamics profile of compound of Formula I.

Q: For `CCCOc1ccc(-c2nc(-c3ccc4oc(C(N)(CO)CO)cc4c3)no2)cc1Cl` [compound of formula (I)], which “MPO activity (ear tissue)” value [1] is on record?
A: significantly reduced

Q: And the “reduction of ear thickness” value ([1]; 24 h after challenge, p<0.0001)?
A: ~70%

Q: And the “reduction of ear weight” value ([1]; 24 h after challenge, p<0.01)?
A: ~50%

Q: What about the “body temperature and organ histopathology” value [2] of the same molecule?
A: positive impact on the body temperature and organ histopathology

Q: What about the “DSS-induced colitis, overall” value ([3]; 3 mg/kg oral daily) of the same molecule?
A: improvement of DSS-induced colitis

Q: What about the mean colon length ([3]; day 3, 3 mg/kg oral) of the same molecule?
A: 11.20 cm

Q: And the “gross pathological observations (emaciated, anal area soiled with blood)” value ([3]; day 6, 3 mg/kg oral)?
A: 0.00%

Q: And the mean colon length ([3]; day 6, 3 mg/kg oral)?
A: 13.02 cm

Q: What about the “increase in mucus secreting goblet cells” value ([3]; histopathology day 6) of the same molecule?
A: moderate ( 4/6 animals) to minimal (⅙ animals) increase

Q: What about the “infiltration of MNC” value ([3]; histopathology day 6) of the same molecule?
A: minimal in 2/6 animals and mild in ⅙ animals

Q: And the thickness of mucosa ([3]; histopathology day 6, compared to control)?
A: markedly reduced

Q: What about the “incidence of increase in thickness of mucosa” value ([3]; histopathology of colon) of the same molecule?
A: mild in 3/6 animals and minimal in 2/6 animals

Q: And the “number of mucus secreting goblet cells” value ([3]; histopathology of colon)?
A: increased moderately ( 4/6)

Q: And the “severity of haemorrhages with desquamated cells in lumen of colon” value ([3]; histopathology of colon)?
A: reduced

Q: And the concentration at 3 weeks ([4]; 2 g daily of 3% ww formulation, 2 g daily topical 3% ww formulation for 3 weeks)?
A: ~2.5 ng/mL

Q: What about the concentration at 21 days ([4]; topical, 1 g of 3% by weight formulation per 150 cm^2, 1 g of 3% by weight formulation per 150 cm2 twice daily for 21 days) of the same molecule?
A: ~2.2 ng/mL

Q: And the concentration at 1 week ([4]; topical, 2 g of 3% or 6% by weight formulation (60 mg or 120 mg) over the joint area for one week)?
A: ≤ 2.5 ng/mL

Q: And the solubility in water [5]?
A: soluble in water
